The subject of data set [1] is wild-type C57BL/6 mice. Description: Self-grooming experiment in wild-type mice. It counts as in vivo. Particulars: six weeks, within 10 minutes. The protocol:
Four-week-aged mice were given a low dose (0.1 mg/g) or a high dose (0.3 mg/g) of DSF (Sigma, dissolved in olive oil) every two days for 6 weeks. The control group was only given the solvent olive oil (Aladdin). The body weight of the mice was weighed weekly. After 6 weeks of gastric administration, the test of mouse behavior was started. The brains of the control and DSF mice were dissected and taken. After freezing with liquid nitrogen, the brain tissue was homogenized, and ATRA was quantified by the HPLC-MS/MS method as described hereinafter. The mice used in the self-grooming experiment were placed in a cage box filled with a filler having a thickness of about 0.5-1 cm for 10 minutes in advance for accommodation. Then, within 10 minutes, the time of self-grooming in mice was recorded by a double-blind experimenter through a stopwatch.

The subject of data set [2] is wild-type C57BL/6 mice. Description: Three-chamber social experiment in wild-type mice. It counts as in vivo. The settings on record: DSF 0.3 mg/g. The protocol: Four-week-aged mice were given a low dose (0.1 mg/g) or a high dose (0.3 mg/g) of DSF (Sigma, dissolved in olive oil) every two days for 6 weeks. The control group was only given the solvent olive oil (Aladdin). The body weight of the mice was weighed weekly. After 6 weeks of gastric administration, the test of mouse behavior was started. The brains of the control and DSF mice were dissected and taken. After freezing with liquid nitrogen, the brain tissue was homogenized, and ATRA was quantified by the HPLC-MS/MS method as described hereinafter. A three-chamber social experiment was performed according to previously reported procedures (Sztainberg et al., 2015). Briefly, a transparent acrylic box for social experiment was divided into three chambers of uniform size with removable gates mounted on the partition board. An inverted iron mesh cup was placed in each of the left and right chambers. Two days before the experiment, C57BL/6 mice, which were from different family and whose age was matched with the test mice, were placed in two cups as strange mice for 1 hour each day for accommodation. Test mice were randomized into groups and accommodated to the test chamber for 1 hour before the test started. Each test mouse was placed in the center chamber for 10 minutes for self-exploration, and the chamber door was closed. In the first stage, a strange mouse was randomly placed in the left or right cup (avoiding positional bias), and the inanimate article was placed in the cup on the other side. […] In the second stage, the test mice were kept in the chamber of the strange mouse for 5 minutes, and then another strange mouse was placed in the cup in which the article was previously placed.

A short description of data set [3]: Body weight of mice during DSF administration. It counts as in vivo. The settings on record: DSF 0.1 or 0.3 mg/g, weighed weekly, six weeks. The protocol: (§1) Four-week-aged mice were given a low dose (0.1 mg/g) or a high dose (0.3 mg/g) of DSF (Sigma, dissolved in olive oil) every two days for 6 weeks. The control group was only given the solvent olive oil (Aladdin). The body weight of the mice was weighed weekly. After 6 weeks of gastric administration, the test of mouse behavior was started. The brains of the control and DSF mice were dissected and taken. After freezing with liquid nitrogen, the brain tissue was homogenized, and ATRA was quantified by the HPLC-MS/MS method as described hereinafter.

Data set [4] concerns ATRA synthesis in the mouse brain. Briefly: HPLC-MS/MS quantification of ATRA in mouse brain tissue. It counts as in vivo, mice. The settings on record: six weeks. The protocol:
Four-week-aged mice were given a low dose (0.1 mg/g) or a high dose (0.3 mg/g) of DSF (Sigma, dissolved in olive oil) every two days for 6 weeks. The control group was only given the solvent olive oil (Aladdin). The body weight of the mice was weighed weekly. After 6 weeks of gastric administration, the test of mouse behavior was started. The brains of the control and DSF mice were dissected and taken. After freezing with liquid nitrogen, the brain tissue was homogenized, and ATRA was quantified by the HPLC-MS/MS method as described hereinafter. Sample preparation, retinoid extraction and subsequent HPLC-MS/MS analysis were performed according to the previously reported procedures (Kane et al., 2010). The frozen brains of mice were homogenized on ice with 2 mL of 0.9% saline under red light condition. 13-cis-retinoic acid-d5 (20 ng/mL, TRC) was added into the tissue homogenate as an internal reference. […] The samples were analyzed by HPLC on a 2.1×100 mm Supelcosil ABZ+PLUS column (3 urn, Sigma) column. […] The instrumentation was an AB Sciex 4000 QTRAP LC-MS/MS system, and the ATRA component was quantified in the APCI cation mode, and the ATRA content in each sample was corrected using a standard ATRA curve.

In data set [5] the test system is wild-type C57BL/6 mice. Description: Rotating rod experiment in wild-type mice. It counts as in vivo. The settings on record: DSF 0.1 or 0.3 mg/g. The protocol:
as §1
After mice were randomized into groups, the motor coordination ability of the mice was recorded using a Rotamex rotarod instrument (Columnbus Instruments). On the same day, the test mice were tested 3 times, each experiment was lasted 5 minutes, and the rotating rod was accelerated from 4 revolutions […]. There were at least 30 minutes between two experiments. The time before the test mice dropped off the rod was automatically recorded by an infrared detection system, and the results of the last test were finally compared.

Data set [6] deals with wild-type C57BL/6 mice. Description: Open field experiment in wild-type mice. It counts as in vivo. The settings on record: DSF 0.1 or 0.3 mg/g vs solvent. The protocol:
as §1
Mice were randomized into groups and placed in an open field instrument (Med Associates) for 30 minutes. The Ethovision automatic recording software (Noldus) was used to record the time spent by the mouse in the central region (⅓ to ⅔ of length on each side of the region) and to calculate the ratio of the distance walked in the central region to the total distance.

In data set [7] the test system is wild-type C57BL/6 mice. Description: Elevated cross maze experiment in wild-type mice. The data set is classed as in vivo. Particulars: DSF 0.1 or 0.3 mg/g vs solvent. The protocol: as §1
Mice were placed in a closed arm of an elevated cross maze (Med Associates) and recording was started for 5 minutes. Image recording was performed using a camera hanged in the air, and the number of times that the mouse entered into the open arm and the closed arm within 5 minutes was recorded and analyzed using ANY-maze software (Stoelting).

Consider `CCN(CC)C(=S)SSC(=S)N(CC)CC` [DSF, disulfiram], for which the time of self-grooming with wild-type C57BL/6 mice [1] (DSF 0.1 mg/g) was 30 s. In addition, the time of self-grooming in the data set with wild-type C57BL/6 mice [1] (DSF 0.3 mg/g) was 42 s. In addition, in the data set with wild-type C57BL/6 mice [2], the “increase of time spent in the chamber of familiar social mouse vs solvent group” value worked out at 50% and the “reduction of time staying in the chamber of strange social mouse vs solvent group” value turned out to be 30%. The “body weight between the groups” value in data set [3] is reported as “no significant difference”. Besides, the “decrease of ATRA level in brain tissue vs solvent group” value in data set [4] (DSF 0.1 mg/g oral every other day) is given as 30%. The “decrease of ATRA level in brain tissue vs solvent group” value in data set [4] (DSF 0.3 mg/g oral every other day) worked out at 60%. The “sport ability (rotating rod)” value in the data set on wild-type C57BL/6 mice [5] is “did not affect the sport ability”. For the same molecule, in the data set with wild-type C57BL/6 mice [6], the “distance of the movement in the open field” value is reported as “no difference” and the “time staying in the middle area of the open field” value was “no difference”. Further, the “number of times entering the open arm as a percentage of all arm entry” value in the data set with wild-type C57BL/6 mice [7] is “no significant difference”.

Values taken from patent publication US12295992B2, “Use of ALDH1A and agonist, catalyst and inhibitor thereof” (SHANGHAI INSTITUTES FOR BIOLOGICAL SCIENCES, CHINESE …, priority 2017, dated 2025).
